From patent US9617256B2 (priority 2007, dated 2017)
In brackets after ≈: the same amount, converted by molar mass. Where two headings read alike, the source gives them in different places.

Legend:
APAE001 (ATCC27853) = test: MIC broth microdilution, APAE001; type: cell-based, P. aeruginosa; settings: for MIC APAE001: APAE001 is ATCC27853; for MIC: Pseudomonas aeruginosa
Summary of the method: (§1)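 MICs come from broth microdilution in cation-adjusted Mueller-Hinton broth, final inoculum 3×10^5–7×10^5 CFU/mL, 18-24 hours at 35° C. Levofloxacin and QC strains served as assay controls.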

[1] = test system: AECO063 (ATCC25922 bearing an acrAB mutation); test: microbe, parasite or virus in culture; type: cell-based, E. coli; settings: for MIC AECO063: ATCC25922 bearing an acrAB mutation; for MIC: Escherichia coli, ATCC25922, read-out: MIC AECO063
Summary of the method: as §1

AECO001 (ATCC25922) = test: MIC broth microdilution, AECO001; type: cell-based, E. coli; settings: for MIC AECO001: AECO001 is ATCC25922; for MIC: Escherichia coli
Summary of the method: as §1

[2] = test system: APAE006 (strain of P. aeruginosa in which all efflux pumps are inactivated); test: microbe, parasite or virus in culture; type: cell-based; settings: for MIC APAE006: P. aeruginosa, all efflux pumps inactivated; for MIC: Pseudomonas aeruginosa
Summary of the method: (§2)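 Inocula prepared from 0.5 McFarland suspensions (final 3×10^5–7×10^5 CFU/mL) were added to 2-fold drug dilution series in cation-adjusted Mueller-Hinton broth. Plates stood 18-24 hours at 35° C. under ambient air.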

[3] = test system: AABA1060 (clinical isolate of Acinetobacter baumannii); test: MIC broth microdilution, AABA1060; type: cell-based; settings: for MIC AABA1060: clinical isolate of Acinetobacter baumannii; for MIC: Acinetobacter baumannii, read-out: MIC AABA1060
Summary of the method: as §1

[4] = test system: APAE006 in the presence of 8 micrograms per milliliter of polymyxin B nonapeptide; type: cell-based, P. aeruginosa
Summary of the method: as §2

AECO001 HSA AGP = test: MIC broth microdilution, AECO001 HSA AGP; type: cell-based, E. coli; settings: for MIC: Escherichia coli
Description: Bacterial isolates were cultivated from −70° C. frozen stocks by overnight passages at 35° C. in ambient air on Mueller-Hinton agar (Beckton Dickinson, Franklin Lakes, N.J.). Clinical isolates tested were obtained from various geographically diverse hospitals in the US and abroad (Focus Diagnostics, Herndon, Va. and JMI, North Liberty, Iowa). Quality control strains were from the American Type Culture Collection (ATCC; Rockville, Md.). Additional primary panel strains were generated using standard molecular biology techniques.
Minimum Inhibitory Concentrations (MICs) were determined by the broth microdilution method in accordance with the Clinical and Laboratory Standards Institute (CLSI) guidelines. In brief, organism suspensions were adjusted to a 0.5 McFarland standard to yield a final inoculum between 3×10^5 and 7×10^5 colony-forming units (CFU)/mL. Drug dilutions and inocula were made in sterile, cation adjusted Mueller-Hinton Broth (Beckton Dickinson). An inoculum volume of 100 μL was added to wells containing 100 μL of broth with 2-fold serial dilutions of drug. All inoculated microdilution trays were incubated in ambient air at 35° C. for 18-24 hours. […] Performance of the assay was monitored by the use of laboratory quality-control strains and levofloxacin, a compound with a defined MIC spectrum, in accordance with CLSI guidelines.
*AECO001 is ATCC25922, AECO063 is ATCC25922 bearing an acrAB mutation, APAE001 is ATCC27853, APAE006 is a strain of P. aeruginosa in which all efflux pumps are inactivated, APAE006+PMBN indicates MICs with the indicated strain in the presence of 8 micrograms per milliliter of polymyxin B nonapeptide, AABA1060 is a clinical isolate of Acinetobacter baumannii, ASAU001 is a laboratory strain of S. aureus (ATCC29213).

[5] = test system: ASAU001 (laboratory strain of S. aureus, ATCC29213); test: MIC broth microdilution, ASAU001; type: cell-based; settings: for MIC ASAU001: S. aureus ATCC29213; for MIC: Staphylococcus aureus, ATCC29213, read-out: MIC ASAU001
Summary of the method: as §1

[6] = ATCC27853, read-out: MIC APAE001, APAE001 is ATCC27853
[7] = ATCC25922, read-out: MIC AECO001
[8] = read-out: MIC APAE006, P. aeruginosa, all efflux pumps inactivated
[9] = ATCC27853, read-out: MIC APAE001, APAE001 (ATCC27853)
[10] = ATCC25922, read-out: MIC AECO001 HSA AGP
[11] = read-out: MIC APAE006, APAE006, all efflux pumps inactivated
[12] = APAE006 with 8 micrograms per milliliter polymyxin B nonapeptide

Compound	MIC APAE001 (APAE001 (ATCC27853))	MIC AECO063 [1]	MIC AECO001 (AECO001 (ATCC25922))	MIC APAE006 [2]	MIC AABA1060 [3]	MIC APAE006 + PMBN ([4]; in the presence of 8 micrograms per milliliter of polymyxin B nonapeptide)	MIC AECO001 HSA AGP (AECO001 HSA AGP)	MIC ASAU001 [5]	MIC (APAE001 (ATCC27853); [6]) [µg/mL]	MIC [1] [µg/mL]	MIC (AECO001 (ATCC25922); [7]) [µg/mL]	MIC [2, 8] [µg/mL]	MIC [3] [µg/mL]	MIC (AECO001 HSA AGP) [µg/mL]	MIC [5] [µg/mL]	MIC (APAE001 (ATCC27853); [9]) [µg/mL]	MIC (AECO001 (ATCC25922); [10]) [µg/mL]	MIC [2, 11] [µg/mL]	MIC APAE006 + PMBN [4, 12]
3-Amino-N-hydroxy-3-methyl-2-[3-(4-morpholin-4-ylmethyl-phenyl)-propynoylamino]-butyramide [Example 129-1]	A (MIC's of 2.0 μg/mL or less = A)	A (MIC's of 2.0 μg/mL or less = A)	A (MIC's of 2.0 μg/mL or less = A)	A (MIC's of 2.0 μg/mL or less = A)	B (MIC's of greater than 2.0 μg/mL to 16.0 μg/mL = B)	A (MIC's of 2.0 μg/mL or less = A)	B (MIC's of greater than 2.0 μg/mL to 16.0 μg/mL = B)	D (MIC's of greater than 64.0 μg/mL = D)	–	–	–	–	–	–	–	–	–	–	–
C[C@@H](O)[C@H](NC(=O)c1ccc(SCc2ccc(CN3CCOCC3)cc2)cc1)C(=O)NO [Example 46-4, N-((1S,2R)-2-Hydroxy-1-hydroxycarbamoyl-propyl)-4-(4-morpholin-4-ylmethyl-benzylsulfanyl)-benzamide]	–	–	–	–	–	–	–	–	16 to 64 (≈ 34.8 to 139 µM)	2 to 16 (≈ 4.35 to 34.8 µM)	16 to 64 (≈ 34.8 to 139 µM)	< 2	> 64	16 to 64 (≈ 34.8 to 139 µM)	> 64	–	–	–	–
C[C@@H](O)[C@H](NC(=O)c1ccc(Sc2ccc(CN3CCOCC3)cc2)cc1)C(=O)NO [Example 47-5, N-((1S,2R)-2-hydroxy-1-hydroxycarbamoyl-propyl)-4-(4-morpholin-4-ylmethyl-phenylsulfanyl)-benzamide]	–	–	–	–	–	–	–	–	> 64	> 64	> 64	16 to 64 (≈ 35.9 to 144 µM)	> 64	> 64	> 64	–	–	–	–
C[C@@H](O)[C@H](NC(=O)c1ccc(Cc2ccc(CN3CCOCC3)cc2)cc1)C(=O)NO [Example 48-5, N-((1S,2R)-2-Hydroxy-1-hydroxycarbamoyl-propyl)-4-(4-morpholin-4-ylmethyl-benzyl)-benzamide]	–	–	–	–	–	–	–	–	> 64	> 64	> 64	> 64	> 64	> 64	> 64	–	–	–	–
CC(O)[C@H](NS(=O)(=O)c1ccc(C#Cc2ccc(CN3CCOCC3)cc2)cc1)C(=O)NO (stereo partly drawn) [Example 62-7]	–	–	–	–	–	–	–	–	> 64	2 to 16 (≈ 4.22 to 33.8 µM)	16 to 64 (≈ 33.8 to 135 µM)	2 to 16 (≈ 4.22 to 33.8 µM)	16 to 64 (≈ 33.8 to 135 µM)	16 to 64 (≈ 33.8 to 135 µM)	> 64	–	–	–	–
CC(C)(O)[C@H](NC(=O)c1ccc(C#CC#Cc2cccnc2)cc1)C(=O)NO [Example 88-5]	–	–	–	–	–	–	–	–	2 to 16 (≈ 5.3 to 42.4 µM)	< 2	< 2	< 2	< 2	< 2	16 to 64 (≈ 42.4 to 170 µM)	–	–	–	–
C[C@@H](N)[C@H](NC(=O)c1ccc(CCc2ccc(CN3CCOCC3)cc2)cc1)C(=O)NO [Example 137-1]	B (MIC's of greater than 2.0 μg/mL to 16.0 μg/mL = B)	A (MIC's of 2.0 μg/mL or less = A)	A (MIC's of 2.0 μg/mL or less = A)	A (MIC's of 2.0 μg/mL or less = A)	D (MIC's of greater than 64.0 μg/mL = D)	–	B (MIC's of greater than 2.0 μg/mL to 16.0 μg/mL = B)	D (MIC's of greater than 64.0 μg/mL = D)	–	–	–	–	–	–	–	–	–	–	–
NC[C@H](NC(=O)c1ccc(C#Cc2ccc(CNC(=O)CCC(=O)O)cc2)cc1)C(=O)NO [Example 137-11]	–	–	–	–	–	–	–	–	–	16 to 64 (≈ 35.4 to 141 µM)	> 64	–	> 64	–	> 64	16 to 64 (≈ 35.4 to 141 µM)	> 64	2 to 16 (≈ 4.42 to 35.4 µM)	B (MIC's of greater than 2.0 μg/mL to 16.0 μg/mL = B)
C[C@@H](O)[C@H](NC(=O)c1ccc(/C=C/C#Cc2cccc(F)c2)cc1)C(=O)NO [Example 137-14]	–	–	–	–	–	–	–	–	–	< 2	< 2	–	2 to 16 (≈ 5.23 to 41.8 µM)	–	16 to 64 (≈ 41.8 to 167 µM)	2 to 16 (≈ 5.23 to 41.8 µM)	16 to 64 (≈ 41.8 to 167 µM)	< 2	A (MIC's of 2.0 μg/mL or less = A)
